We go through 1 compound from patent EP2902035B1, “Cell-permeable peptide inhibitors of the JNK signal transduction pathway for use in the treatment of inflammatory eye diseases” (Xigen Inflammation Ltd., priority 2010, dated 2012).

Molecules are shown by their SMILES.

Experiment [1] has as its system chemokines/ cytokines in the serum. Nature of the experiment: Chemokine/Cytokine Multiplex Assay on serum in EIU. The class given is in vivo, Lewis rats. The following applies: tendency, not statistically significant. As for the experimental part:
Aqueous humor and vitreous were collected and pooled from each enucleated eye. Ocular fluids were immediately centrifuged and the cell-free fractions were collected and frozen at -20°C before analysis by Multiplex assay. Blood samples were first clotted at room temperature for 2 hours and then at 4°C overnight. Serum was collected, centrifuged and the clear supernatant was collected and frozen at -20°C before Multiplex analysis.
In a first set of experiment, 70 rats were randomized into 14 experimental groups with 5 rats per group. Uveitis was induced in each group and rats were killed 6 hours (4 groups), 24 hours (6 groups) and 48 hours (4 groups) after LPS challenge. For each time point tested (i.e. 6h, 24h and 48h), rats treated by intravenous or intravitreous injections of vehicle (NaCl 0.9%) or the JNK-inhibitor (poly-)peptide of SEQ ID NO: 11 were compared to untreated control uveitic rats. Two additional groups, treated by intravenous injection of vehicle and intravitreal injection of dexamethasone were used at 24 hours. Clinical ocular inflammation was recorded only at 24 hours (see Scoring of Endotoxin-Induced Uveitis (EIU) section). At each time point, intraocular fluids from each eye (n=10 per group) and serum from each animal (n=5 per group) were used for Chemokine/Cytokine Multiplex Assay.
Intraocular fluids (diluted to obtain a final volume of 25 µL) and sera (25 µL of 1:5 dilution) were subjected to multiplex bead analysis. This method uses microspheres as the solid support for immunoassays 12 and allows the titration of a greater number of cytokines with increased sensitivity than occurs with ELISA.13 For each sample, seventeen analytes were quantified simultaneously using the rat Cytokine/Chemokine-17plex kit (Milliplex Map Kit, Millipore, Saint-Quentin-en-Yvelines, France) according to the manufacturer's instructions: Chemokines MCP-1/CCL2, MIP-1α/CCL3, RANTES/CCL5, IP-10/CXCL10 (IFN-inducible protein-10) and GRO/KC; proinflammatory mediators IL-1, IL-18 and TNF-; Th1/Th2/Th17 cytokines IL-2 and IFN- / IL-4, IL-5, IL-6, IL-10 and IL-13 / IL-17. […]

In another experiment the test system is iNOS mRNA. Nature of the experiment: iNOS expression in ocular tissues by semi-quantitative PCR in EIU. The following applies: retinas. The class given is in vivo, Lewis rats. As for the experimental part: Retinas and RPE/choroid/sclera complexes were also collected at 24 hours to analyze iNOS mRNA levels by RT-PCR and c-Jun phosphorylation state by Western-Blot. Tissues were collected only from eyes treated by IV (intravenous) injection of vehicle, IV injection of the JNK-inhibitor (poly-)peptide of SEQ ID NO: 11, IVT (intravitreal) injection of vehicle and IVT injection of the JNK-inhibitor (poly-)peptide of SEQ ID NO: 11 (n=2 eyes per condition collected from separate rats). Eyes were selected so that their EIU clinical score was representative of the mean of the experimental group they belong to, i.e 3 for eyes treated by IV and IVT injection of vehicle and 2 for eyes treated by IV or IVT injection of the JNK-inhibitor (poly-)peptide of SEQ ID NO: 11.
Two eyes per group were used for this analysis. Immediately after dissection, retinas extracted from each eye were separately snap frozen and stored at -80°C until use. Total RNA was extracted from tissues (RNeasy minikit, Qiagen, Courtaboeuf, France) according to the manufacturer's instructions. […] PCR fragments (162 bp for GAPDH and 657 bp for iNOS) were analyzed by 2.5% agarose gel electrophoresis and visualized by ethidium bromide staining under UV light. The relative band intensity for iNOS was calculated in comparison to that for GAPDH after densitometry analysis (ImageJ software).

With `CC(C)C[C@@H](NC(=O)[C@@H](Cc1ccccc1)NC(=O)[C@H]1CCCN1C(=O)[C@@H](CCC(N)=O)NC(=O)[C@H](NC(=O)[C@H]1CCCN1C(=O)[C@@H](CCCNC(=N)N)NC(=O)[C@@H](CO)NC(=O)[C@@H](CCC(N)=O)NC(=O)[C@H](N)CC(=O)O)C(C)C)C(=O)N[C@H](CC(N)=O)C(=O)N[C@H](CC(C)C)C(=O)N[C@@H](C(=O)N[C@@H](C(=O)N1CCC[C@@H]1C(=O)N[C@H](CCCNC(=N)N)C(=O)N[C@H](CCCCN)C(=O)N1CCC[C@@H]1C(=O)N[C@H](CCCNC(=N)N)C(=O)N1CCC[C@@H]1C(=O)N1CCC[C@@H]1C(=O)N[C@H](CCCNC(=N)N)C(=O)N[C@H](CCCNC(=N)N)C(=O)N[C@H](CCCNC(=N)N)C(=O)N[C@H](CCC(N)=O)C(=O)N[C@H](CCCNC(=N)N)C(=O)N[C@H](CCCNC(=N)N)C(=O)N[C@H](CCCCN)C(=O)N[C@H](CCCCN)C(=O)N[C@H](CCCNC(=N)N)C(=O)NCC(=O)O)[C@H](C)O)[C@H](C)O` [SEQ ID NO: 11], the IL-2 entry in experiment [1] (after IV administration) and in experiment [1] (after IVT) was “reduction” in each case. Besides, the MIP-1α result in experiment [1] (after IV administration) is “reduction”. Also, the “Levels of iNOS mRNA (relative band intensity in comparison to GAPDH)” value is 0.40 ± 0.11 in the experiment on iNOS mRNA (24 hours after IV) and 0.27 ± 0.09 in the experiment on iNOS mRNA (24 hours after IVT injection).
